Measured values taken from patent publication US10821115B2, “Compounds that inhibit Mcl-1 protein” (priority 2017, dated 2020).
Read-outs that look alike come from different tables or passages of the source.

Assays:
[1] = biological target: recombinant human Mcl-1 (residues 171-327) / Bim interaction (Homo sapiens (Human), UniProt Q07820); assay: biochemical; assay type: binding; settings: read-out: Mcl-1 HTRF IC50
[2] = test system: human multiple myeloma cell line, OPM-2; assay: Cell viability assay (OPM-2 10 FBS), CellTiter-Glo; assay type: cell-based
Method in brief: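 Steps: plate cells at 3000/well in 10% FBS growth medium, add serially diluted compound, incubate 16 h at 37 °C with 5% CO2, add detection reagent and read luminescence after 25 min. A 4-parameter logistic model gives IC50.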

[3] = TR-FRET, Mcl-1(171-327) / biotin-Bim (51-76)
[4] = Homo sapiens, OPM-2, 16 h, read-out: OPM-2 10% FBS IC50 IP, OPM-2 cells, 10% FBS, 16 h, CellTiter-Glo
[5] = read-out: OPM-2 10% FBS IC50 IP, OPM-2 cells, 10% FBS, 16 h, CellTiter-Glo

Sequence of recombinant human Mcl-1 (residues 171-327) / Bim interaction (Q07820 171-327): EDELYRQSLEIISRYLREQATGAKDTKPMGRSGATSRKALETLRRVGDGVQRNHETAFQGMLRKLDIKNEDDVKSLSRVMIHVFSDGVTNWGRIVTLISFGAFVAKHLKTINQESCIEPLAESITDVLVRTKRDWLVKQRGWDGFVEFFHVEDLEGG

| SMILES | IC50 [1, 3] | IC50 [2, 4] | IC50 [2, 5] | IC50 [1] |
| --- | --- | --- | --- | --- |
| CO[C@]1(CCN2CC(C)(N(C)C)C2)/C=C/C[C@H](C)[C@@H](C)S(=O)(=O)NC(=O)c2ccc3c(c2)N(C[C@@H]2CC[C@H]21)C[C@@]1(CCCc2cc(Cl)ccc21)CO3 [Example 100453, (1S,3′R,6′R,7′R,8′E,11′S,12′R)-6-chloro-7′-(2-(3-(dimethylamino)-3-methyl-1-azetidinyl)ethyl)-7′-methoxy-11′,12′-dimethyl-3,4-dihydro-2H,15′H-spiro[naphthalene-1,22′-[20]oxa[13]thia[1,14]diazatetracyclo [14.7.2.0~3,6~.0~19,24~]pentacosa[8,16,18,24]tetraen]-15′-one 13′,13′-dioxide] | 0.927 nM | 2930 nM |  |  |
| C[C@@H]1[C@@H](C)C/C=C/[C@@](O)(C#CCCc2ccccn2)[C@@H]2CC[C@H]2CN2C[C@@]3(CCCc4cc(Cl)ccc43)COc3ccc(cc32)C(=O)NS1(=O)=O [Example 100454, (1S,3′R,6′R,7′S,8′E,11′S,12′R)-6-chloro-7′-hydroxy-11′,12′-dimethyl-7′-(4-(2-pyridinyl)-1-butyn-1-yl)-3,4-dihydro-2H,15′H-spiro[naphthalene-1,22′-[20]oxa[13]thia[1,14]diazatetracyclo [14.7.2.0~3,6~.0~19,24~]pentacosa[8,16,18,24]tetraen]-15′-one 13′,13′-dioxide] | 0.652 nM |  | 802 nM |  |
| CCC(=O)C[C@]1(OC)/C=C/C[C@H](C)[C@@H](C)S(=O)(=O)NC(=O)c2ccc3c(c2)N(C[C@@H]2CC[C@H]21)C[C@@]1(CCCc2cc(Cl)ccc21)CO3 [Example 100457, (1S,3′R,6′R,7′S,8′E,11′S,12′R)-6-chloro-7′-methoxy-11′,12′-dimethyl-7′-(2-oxobutyl)-3,4-dihydro-2H,15′H-spiro[naphthalene-1,22′-[20]oxa[13]thia[1,14]diazatetracyclo [14.7.2.0~3,6~.0~19,24~]pentacosa[8,16,18,24]tetraen]-15′-one 13′,13′-dioxide] | 0.331 nM | 967 nM |  |  |
| CO[C@@]1(CC(=O)c2ccccc2)/C=C/C[C@H](C)[C@@H](C)S(=O)(=O)NC(=O)c2ccc3c(c2)N(C[C@@H]2CC[C@H]21)C[C@@]1(CCCc2cc(Cl)ccc21)CO3 [Example 100458, (1S,3′R,6′R,7′S,8′E,11′S,12′R)-6-chloro-7′-methoxy-11′,12′-dimethyl-7′-(2-oxo-2-phenylethyl)-3,4-dihydro-2H,15′H-spiro[naphthalene-1,22′-[20]oxa[13]thia[1,14]diazatetracyclo [14.7.2.0~3,6~.0~19,24~]pentacosa[8,16,18,24]tetraen]-15′-one 13′,13′-dioxide] | 0.21 nM | 418 nM |  |  |
| CO[C@@]1(CS(C)(=O)=O)/C=C/C[C@H](C)[C@@H](C)S(=O)(=O)NC(=O)c2ccc3c(c2)N(C[C@@H]2CC[C@H]21)C[C@@]1(CCCc2cc(Cl)ccc21)CO3 [Example 100459, (1S,3′R,6′R,7′S,8′E,11′S,12′R)-6-chloro-7′-methoxy-11′,12′-dimethyl-7′-((methylsulfonyl)methyl)-3,4-dihydro-2H,15′H-spiro[naphthalene-1,22′-[20]oxa[13]thia[1,14]diazatetracyclo [14.7.2.0~3,6~.0~19,24~]pentacosa[8,16,18,24]tetraen]-15′-one 13′,13′-dioxide] | 0.685 nM | 732 nM |  |  |
| CO[C@@H](C[C@]1(OC)/C=C/C[C@H](C)[C@@H](C)S(=O)(=O)NC(=O)c2ccc3c(c2)N(C[C@@H]2CC[C@H]21)C[C@@]1(CCCc2cc(Cl)ccc21)CO3)C1CC1 [Example 100462, (1S,3′R,6′R,7′S,8′E,11′S,12′R)-6-chloro-7′-((2S)-2-cyclopropyl-2-methoxyethyl)-7′-methoxy-11′,12′-dimethyl-3,4-dihydro-2H,15′H-spiro[naphthalene-1,22′-[20]oxa[13]thia[1,14]diazatetracyclo [14.7.2.0~3,6~.0~19,24~]pentacosa[8,16,18,24]tetraen]-15′-one 13′,13′-dioxide] | 0.304 nM | 652 nM |  |  |
| CO[C@@H](C[C@]1(OC)/C=C/C[C@H](C)[C@@H](C)S(=O)(=O)NC(=O)c2ccc3c(c2)N(C[C@@H]2CC[C@H]21)C[C@@]1(CCCc2cc(Cl)ccc21)CO3)C1CC1 [Example 100463, (1S,3′R,6′R,7′S,8′E,11′S,12′R)-6-chloro-7′-((2S)-2-cyclopropyl-2-methoxyethyl)-7′-methoxy-11′,12′-dimethyl-3,4-dihydro-2H,15′H-spiro[naphthalene-1,22′-[20]oxa[13]thia[1,14]diazatetracyclo [14.7.2.0~3,6~.0~19,24~]pentacosa[8,16,18,24]tetraen]-15′-one 13′,13′-dioxide] | 0.383 nM |  | 1130 nM |  |
| COCCO[C@@]1(C)/C=C/C[C@H](C)[C@@H](C)S(=O)(=O)NC(=O)c2ccc3c(c2)N(C[C@@H]2CC[C@H]21)C[C@@]1(CCCc2cc(Cl)ccc21)CO3 [Example 100466, (1S,3′R,6′R,7′S,8′E,11′S,12′R)-6-chloro-7′-(2-methoxyethoxy)-7′,11′,12′-trimethyl-3,4-dihydro-2H,15′H-spiro[naphthalene-1,22′-[20]oxa[13]thia[1,14]diazatetracyclo [14.2.0~3,6~.0~19,24~]pentacosa[8,16,18,24]tetraen]-15′-one 13′,13′-dioxide] | 0.043 nM | 1440 nM |  |  |
| C[C@@H]1[C@@H](C)C/C=C/[C@@](C)(OCCN2CCOCC2)[C@@H]2CC[C@H]2CN2C[C@@]3(CCCc4cc(Cl)ccc43)COc3ccc(cc32)C(=O)NS1(=O)=O [Example 100467, (1S,3′R,6′R,7′R,8′E,11′S,12′R)-6-chloro-7′,11′,12′-trimethyl-7′-(2-(4-morpholinyl)ethoxy)-3,4-dihydro-2H,15′H-spiro[naphthalene-1,22′-[20]oxa[13]thia[1,14]diazatetracyclo [14.7.2.0~3,6~.0~19,24~]pentacosa[8,16,18,24]tetraen]-15′-one 13′,13′-dioxide] | 0.303 nM | 516 nM |  |  |
| CO[C@@]1(c2cncnc2)/C=C/C[C@H](C)[C@@H](C)S(=O)(=O)NC(=O)c2ccc3c(c2)N(C[C@@H]2CC[C@H]21)C[C@@]1(CCCc2cc(Cl)ccc21)CO3 [Example 100468, (1S,3′R,6′R,7′S,8′E,11′S,12′R)-6-chloro-7′-methoxy-11′,12′-dimethyl-7′-(5-pyrimidinyl)-3,4-dihydro-2H,15′H-spiro[naphthalene-1,22′-[20]oxa[13]thia[1,14]diazatetracyclo [14.7.2.0~3,6~.0~19,24~]pentacosa[8,16,18,24]tetraen]-15′-one 13′,13′-dioxide] | 0.393 nM | 943 nM |  |  |
| C[C@@H]1[C@@H](C)CCC[C@](O)(c2ccccn2)[C@@H]2CC[C@H]2CN2C[C@@]3(CCCc4cc(Cl)ccc43)COc3ccc(cc32)C(=O)NS1(=O)=O [Example 100469, (1S,3′R,6′R,7′R,11′S,12′R)-6-chloro-7′-hydroxy-11′,12′-dimethyl-7′-(2-pyridinyl)-3,4-dihydro-2H,15′H-spiro[naphthalene-1,22′-[20]oxa[13]thia[1,14]diazatetracyclo [14.7.2.0~3,6~.0~19,24~]pentacosa[16,18,24]trien]-15′-one 13′,13′-dioxide] | 0.085 nM | 325 nM |  |  |
| C=C(C)[C@@H](O)C[C@]1(OC)/C=C/C[C@H](C)[C@@H](C)S(=O)(=O)NC(=O)c2ccc3c(c2)N(C[C@@H]2CC[C@H]21)C[C@@]1(CCCc2cc(Cl)ccc21)CO3 [Example 100470, (1S,3′R,6′R,7′S,8′E,11′S,12′R)-6-chloro-7′-((2S)-2-hydroxy-3-methyl-3-buten-1-yl)-7′-methoxy-11′,12′-dimethyl-3,4-dihydro-2H,15′H-spiro[naphthalene-1,22′-[20]oxa[13]thia[1,14]diazatetracyclo [14.7.2.0~3,6~.0~19,24~]pentacosa[8,16,18,24]tetraen]-15′-one 13′,13′-dioxide] |  |  | 9650 nM | 0.576 nM |
| C=C(C)[C@@H](O)C[C@]1(OC)/C=C/C[C@H](C)[C@@H](C)S(=O)(=O)NC(=O)c2ccc3c(c2)N(C[C@@H]2CC[C@H]21)C[C@@]1(CCCc2cc(Cl)ccc21)CO3 [Example 100471, (1S,3′R,6′R,7′S,8′E,11′S,12′R)-6-chloro-7′-((2S)-2-hydroxy-3-methyl-3-buten-1-yl)-7′-methoxy-11′,12′-dimethyl-3,4-dihydro-2H,15′H-spiro[naphthalene-1,22′-[20]oxa[13]thia[1,14]diazatetracyclo [14.7.2.0~3,6~.0~19,24~]pentacosa[8,16,18,24]tetraen]-15′-one 13′,13′-dioxide] |  |  | 299 nM | 0.281 nM |
| CO[C@]1(CCN(C)C)CCC[C@H](C)[C@@H](C)S(=O)(=O)NC(=O)c2ccc3c(c2)N(C[C@@H]2CC[C@H]21)C[C@@]1(CCCc2cc(Cl)ccc21)CO3 [Example 100472, (1S,3′R,6′R,7′S,11′S,12′R)-6-chloro-7′-(2-(dimethylamino)ethyl)-7′-methoxy-11′,12′-dimethyl-3,4-dihydro-2H,15′H-spiro[naphthalene-1,22′-[20]oxa[13]thia[1,14]diazatetracyclo [14.7.2.0~3,6~.0~19,24~]pentacosa[16,18,24]trien]-15′-one 13′,13′-dioxide] | 0.651 nM | 357 nM |  |  |
| CO[C@H](C)[C@]1(OC)/C=C/C[C@H](C)[C@@H](C)S(=O)(=O)NC(=O)c2ccc3c(c2)N(C[C@@H]2CC[C@H]21)C[C@@]1(CCCc2cc(Cl)ccc21)CO3 [Example 100473, (1S,3′R,6′R,7′S,8′E,11′S,12′R)-6-chloro-7′-methoxy-7′-((1R)-1-methoxyethyl)-11′,12′-dimethyl-3,4-dihydro-2H,15′H-spiro[naphthalene-1,22′-[20]oxa[13]thia[1,14]diazatetracyclo [14.7.2.0~3,6~.0~19,24~]pentacosa[8,16,18,24]tetraen]-15′-one 13′,13′-dioxide] | 0.974 nM |  | 178 nM |  |
